# Legend:
# [1] = target: T1, human sweet receptor hT1R2/hT1R3 (Homo sapiens, UniProt Q7RTX0+Q8TE23); conditions: prevented by pertussis toxin; cited from earlier work
# T1 construct: host or cells: human embryonic kidney cells (earlier application U.S. Ser. No. 10/770,127)
# T1 sequence (Q8TE23 20-839): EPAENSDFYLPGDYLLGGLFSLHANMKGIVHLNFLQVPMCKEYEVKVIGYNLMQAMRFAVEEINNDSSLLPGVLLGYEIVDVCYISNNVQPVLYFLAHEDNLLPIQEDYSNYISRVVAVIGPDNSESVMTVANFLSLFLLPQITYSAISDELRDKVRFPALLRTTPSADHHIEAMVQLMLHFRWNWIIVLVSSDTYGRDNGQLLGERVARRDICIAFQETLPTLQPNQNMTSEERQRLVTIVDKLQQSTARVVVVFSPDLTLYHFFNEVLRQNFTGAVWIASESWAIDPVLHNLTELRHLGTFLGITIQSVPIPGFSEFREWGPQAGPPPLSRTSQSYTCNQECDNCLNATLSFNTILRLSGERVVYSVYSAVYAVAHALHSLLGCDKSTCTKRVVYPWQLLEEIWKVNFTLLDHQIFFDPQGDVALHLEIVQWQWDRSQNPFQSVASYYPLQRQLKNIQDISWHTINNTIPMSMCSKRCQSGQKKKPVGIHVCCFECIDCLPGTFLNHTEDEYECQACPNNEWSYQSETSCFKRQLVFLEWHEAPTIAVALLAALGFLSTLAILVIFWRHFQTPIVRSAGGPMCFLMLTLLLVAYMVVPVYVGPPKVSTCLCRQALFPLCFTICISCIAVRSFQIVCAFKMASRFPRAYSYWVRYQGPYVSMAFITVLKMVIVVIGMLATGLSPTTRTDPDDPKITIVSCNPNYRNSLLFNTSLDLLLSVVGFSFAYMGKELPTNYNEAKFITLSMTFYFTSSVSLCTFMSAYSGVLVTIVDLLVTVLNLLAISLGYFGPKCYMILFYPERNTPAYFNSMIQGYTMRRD
# T1 sequence (Q7RTX0 21-852): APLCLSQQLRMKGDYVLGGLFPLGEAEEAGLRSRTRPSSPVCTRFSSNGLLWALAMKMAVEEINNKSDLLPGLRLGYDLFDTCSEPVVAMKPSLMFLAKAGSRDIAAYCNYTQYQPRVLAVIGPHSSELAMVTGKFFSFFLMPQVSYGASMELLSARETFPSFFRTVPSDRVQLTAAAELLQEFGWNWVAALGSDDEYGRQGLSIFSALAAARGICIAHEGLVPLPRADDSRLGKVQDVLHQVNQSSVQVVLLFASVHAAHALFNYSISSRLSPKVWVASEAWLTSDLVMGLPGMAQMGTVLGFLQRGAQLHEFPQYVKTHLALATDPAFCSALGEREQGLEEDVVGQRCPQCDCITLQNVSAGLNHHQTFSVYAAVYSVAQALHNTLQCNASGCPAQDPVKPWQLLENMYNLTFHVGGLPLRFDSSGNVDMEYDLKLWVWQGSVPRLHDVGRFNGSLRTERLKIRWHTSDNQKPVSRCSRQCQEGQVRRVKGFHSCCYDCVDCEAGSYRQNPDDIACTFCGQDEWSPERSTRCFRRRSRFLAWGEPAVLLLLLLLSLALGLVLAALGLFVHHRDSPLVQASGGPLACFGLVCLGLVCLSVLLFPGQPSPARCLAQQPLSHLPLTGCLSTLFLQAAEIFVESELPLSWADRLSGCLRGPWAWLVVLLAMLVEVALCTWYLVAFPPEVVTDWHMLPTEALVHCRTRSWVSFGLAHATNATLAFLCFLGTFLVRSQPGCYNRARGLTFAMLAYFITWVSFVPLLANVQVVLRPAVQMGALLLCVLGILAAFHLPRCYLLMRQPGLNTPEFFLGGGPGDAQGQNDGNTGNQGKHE
# [2] = tested on: untransfected HEK 293-oCNGC cells; experiment: Isoproterenol-induced calcium influx in untransfected HEK 293-oCNGC cells; assay type: cell-based, human; conditions: for effect on isoproterenol-induced calcium influx: cells not expressing hT1R2/hT1R3, increasing concentrations, 200 nM isoproterenol, FIG. 14
# Experimental: Delta F/F valves were normalized to the fluorescence obtained after stimulation with 200 nM isoproterenol. Each value corresponds to the mean ± SD of a triplicate determination.
# (§1) Modulation of oCNG activity by taste receptors is measured in a cell-based assay that detects changes in intracellular calcium (as described in earlier examples). In brief, human embryonic kidney cells stably expressing the OCNC1 and are β1b subunits of oCNGC are transiently or stably transfected with T1R or T2R receptor plasmids. Transfected cells are seeded into 384-well culture plates, and functional expression is allowed to proceed for about 24 to 48 hours. The cells are then incubated with a calcium specific fluorescent dye (Fluo-4 or Fura-2, available from Molecular Probes) that provides for fast, simple and reliable fluorimetric detection of changes in calcium concentration within the cell.
# An experiment was conducted to confirm that the effects of the sweeteners on calcium influx requires the expression of the sweet receptor.
# In FIG. 14, it is shown that increasing concentrations of the tested sweeteners had no inhibitory effect on isoproterenol-induced calcium influx in untransfected HEK 293—oCNGC cells. Again, Delta F/F values were normalized to the fluorescence obtained after stimulation with 200 nM isoproternol and each value component to the mean ± SD of a triplicate determination).
# [3] = target: T2, bitter receptor mT2R05 (Mus musculus, UniProt Q9JKT4); experiment: Isoproterenol-induced calcium influx in HEK-293-oCNGC cells expressing mT2R05; assay type: cell-based; conditions: 200 nM isoproterenol, FIG. 16
# T2 construct: expressed in transfected cells; host or cells: HEK-293 stably expressing OCNC1 and β1b (HEK-293-oCNGC)
# T2 sequence (Q9JKT4 1-300): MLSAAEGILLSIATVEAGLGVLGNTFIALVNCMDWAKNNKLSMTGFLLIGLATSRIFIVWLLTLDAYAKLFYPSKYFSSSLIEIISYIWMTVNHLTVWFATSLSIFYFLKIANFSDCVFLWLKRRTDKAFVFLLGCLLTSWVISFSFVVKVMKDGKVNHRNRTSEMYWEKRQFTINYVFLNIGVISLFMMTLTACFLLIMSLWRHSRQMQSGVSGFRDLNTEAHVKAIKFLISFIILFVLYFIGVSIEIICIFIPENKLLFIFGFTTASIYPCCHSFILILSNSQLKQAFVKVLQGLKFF
# Experimental: Delta F/F values were normalized to the fluorescence obtained after stimulation with 200 nM isoproterenol. Each value corresponds to the mean +1-SD of a triplicate determination. Cells were also treated with PTX as described for the for the preceding figure.
# as §1, with “cell. […]” for “cell.”
# More specifically, it was shown that PTx prevented inhibition of calcium inluux even with increasing concentrations of cycloheximide in HEK-293—oCNGC cells expressing mT2R05. As in figures above, Delta F/F values were normalized to the fluorescence obtained after stimulation with 200 nM isoproterenol. […]
# [4] = target: T3, mT2R05 (Mus musculus, UniProt Q9JKT4); conditions: mT2R05-expressing cells; cited from earlier work
# T3 construct: host or cells: human embryonic kidney cells (earlier application)
# T3 sequence (Q9JKT4 1-300): T2 sequence (Q9JKT4 1-300)
# [5] = target: T4, mouse bitter receptor mT2R05 (Mus musculus, UniProt Q9JKT4); conditions: abolished by pertussis toxin; cited from earlier work
# T4 construct: host or cells: human embryonic kidney cells (earlier application)
# T4 sequence (Q9JKT4 1-300): T2 sequence (Q9JKT4 1-300)
# [6] = tested on: rat bitter receptors rT2R9; conditions: abolished by pertussis toxin; cited from earlier work
# [7] = target: T5, hT1R1/hT1R3 (Homo sapiens, UniProt Q7RTX0+Q7RTX1); conditions: hT1R1/hT1R3-expressing cells; cited from earlier work
# T5 construct: host or cells: human embryonic kidney cells (earlier application U.S. Ser. No. 10/770,127)
# T5 sequence (Q7RTX1 21-841): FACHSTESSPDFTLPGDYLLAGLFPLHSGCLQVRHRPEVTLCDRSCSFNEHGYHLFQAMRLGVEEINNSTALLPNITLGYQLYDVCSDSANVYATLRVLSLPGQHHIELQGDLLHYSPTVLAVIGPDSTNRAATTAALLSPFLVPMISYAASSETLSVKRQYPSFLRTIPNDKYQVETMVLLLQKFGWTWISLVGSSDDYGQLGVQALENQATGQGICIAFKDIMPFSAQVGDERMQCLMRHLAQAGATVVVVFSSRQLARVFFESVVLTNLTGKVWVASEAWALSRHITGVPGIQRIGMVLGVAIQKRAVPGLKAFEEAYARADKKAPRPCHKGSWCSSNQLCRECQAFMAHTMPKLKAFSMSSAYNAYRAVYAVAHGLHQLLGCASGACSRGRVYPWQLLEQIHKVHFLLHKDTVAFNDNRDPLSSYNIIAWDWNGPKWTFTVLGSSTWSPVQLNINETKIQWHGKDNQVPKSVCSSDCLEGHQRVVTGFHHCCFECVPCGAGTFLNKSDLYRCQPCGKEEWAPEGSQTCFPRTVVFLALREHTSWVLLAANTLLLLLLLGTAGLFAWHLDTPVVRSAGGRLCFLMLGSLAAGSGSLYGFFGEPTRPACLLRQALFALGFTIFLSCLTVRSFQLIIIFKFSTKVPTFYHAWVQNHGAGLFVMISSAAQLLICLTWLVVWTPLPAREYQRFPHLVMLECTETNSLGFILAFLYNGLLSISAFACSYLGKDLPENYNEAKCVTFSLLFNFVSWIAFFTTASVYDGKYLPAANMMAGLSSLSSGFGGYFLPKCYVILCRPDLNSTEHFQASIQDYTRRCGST
# T5 sequence (Q7RTX0 21-852): T1 sequence (Q7RTX0 21-852)
# [8] = target: T6, human umami receptor hT1R1/hT1R3 (Homo sapiens, UniProt Q7RTX0+Q7RTX1); conditions: prevented by pertussis toxin; cited from earlier work
# T6 sequence (Q7RTX1 21-841): T5 sequence (Q7RTX1 21-841)
# T6 sequence (Q7RTX0 21-852): T1 sequence (Q7RTX0 21-852)
# [9] = target: T1, human sweet receptor hT1R2/hT1R3; experiment: Isoproterenol-induced calcium influx in HEK-293-oCNGC cells expressing hT1R2/hT1R3; assay type: cell-based; conditions: PTX 100 ng/ml for 4 hours; 200 nM isoproterenol; 5 mM Aspartame, 2 mM Cyclamate, 4 mM Saccharin, 0.1 mM Neotame; FIG. 15
# Experimental: FIG. 13 contains the result of an experiment showing that increasing concentrations of sweeteners inhibit the isoproterenol-induced-calcium influx in HEK 293-oCNGC cells expressing the human sweet receptor hT1R2/hT1R3. Delta F/F values were normalized to the fluorescence obtained after stimulation with 200 nM isoproterenol. Each value corresponds to the mean ± SD of a triplicate determination.
# Cells were left untreated (control) or treated with PTX for 4 hours at 100 ng/ml prior to the experiment. Cells were then stimulated with 200 nM isoproterenol in the presence or absence of the indicated sweeteners (5 mM Aspartame, 2 mM Cyclamate, 4 mM Saccharin and 0.1 mM Neotame).
# as §1
# An experiment was conducted to assess the effect of various sweeteners (known to activate the human T1R2/T1R3 sweet receptor) on isoproterenol-induced calcium influx in HEK-293—oCNGC cells that express the human T1R2/T1R3 sweet receptor. As shown by the results in FIG. 13, increasing concentrations of sweetener inhibits isoproterenol-induced calcium influx in these cells. (In the figure, Delta F/F values were normalized to the fluorescence obtained after stimulation with 200 nM isoproterenol and each value corresponds to the means ± SD of a triplicate determination). […]
smiles,measurement,setting,value
N[C@H](Cc1c[nH]c2ccccc12)C(=O)O [D-tryptophan],ERK1/2 activation,[1],activate ERK1/2
C[C@@H]1C[C@@H]([C@H](O)CC2CC(=O)NC(=O)C2)C(=O)[C@@H](C)C1 [cycloheximide],response of mT2R05 untransfected cells,"[2]; untransfected HEK 293-oCNGC cells, FIG. 16",did not respond
same,effect on isoproterenol-induced calcium influx after PTx treatment,[3]; cells treated with PTx,failed to inhibit isoproterenol-induced calcium influx
same,effect on isoproterenol-induced calcium influx,[3]; increasing concentrations,inhibited isoproterenol-induced calcium influx
same,inhibition of forskolin-induced cAMP accumulation,[4],70%
same,ERK1/2 activation,[5],specifically activates ERK1/2
same,ERK1/2 activation,[6],specifically activates ERK1/2
N[C@@H](CCC(=O)O)C(=O)[O-].[Na+] [monosodium glutamate],decrease of basal levels of cAMP,[7],50%
same,ERK1/2 activation,[8],exclusively activates ERK1/2
COC(=O)[C@H](Cc1ccccc1)NC(=O)[C@H](CC(=O)O)NCCC(C)(C)C [neotame],inhibition of isoproterenol-induced calcium influx after PTx pretreatment,[9],prevented the inhibition
same,effect on isoproterenol-induced calcium influx,[2],unaffected
O=C1NS(=O)(=O)c2ccccc21 [saccharin],inhibition of isoproterenol-induced calcium influx after PTx pretreatment,[9],prevented the inhibition
same,effect on isoproterenol-induced calcium influx,[2],unaffected
same,ERK1/2 activation,[1],activate ERK1/2
OC[C@H]1O[C@@](CO)(O[C@H]2O[C@H](CO)[C@@H](O)[C@H](O)[C@H]2O)[C@@H](O)[C@@H]1O [sucrose],ERK1/2 activation,[1],activate ERK1/2
